According to patent US20200129504A1, “COMPOSITIONS OF PLINABULIN AND USE THEREOF” (BeyondSpring Pharmaceuticals, Inc., priority 2017, published 2020):

Columns and labels:
[1] = Clinical study of docetaxel plus plinabulin versus docetaxel alone: dexamethasone-related treatment emergent adverse events; assay type: in vivo, patients
Description: Patients received either docetaxel plus plinabulin (DN) or docetaxel alone (75 mg/m^2) (D) treatment. Two dosing cohorts were investigated: • 1) 30 mg/m^2 dosing cohort: patients were randomized (1:1) to receive either docetaxel plus plinabulin at 30 mg/m^2 (DN 30 mg/m^2 arm) or docetaxel alone (D arm), • 2) 20 mg/m^2 dosing cohort: patients were randomized (2:1) to receive either docetaxel plus plinabulin at 20 mg/m^2 (DN 20 mg/m^2 arm) or docetaxel (D arm) alone.
Patients received therapy on Day 1 and Day 8 in 3-week cycles. Therapy on Day 1 consisted of 75 mg/m^2 docetaxel administered via intravenous infusion (IV) over 1 hour, followed 2 hours later (from the time the docetaxel infusion began) by placebo (Arm D) or 30 mg/m^2 or 20 mg/m^2 plinabulin (Arm DN) administered via intravenous infusion (IV) over 30 minutes. […]
Treatment Phase: Safety assessments (including a complete physical examination) were performed prior to study drug infusion. […] Additionally, the following were evaluated: CBC with differential/platelets and clinical chemistry were performed up to 72 hours prior to Day 1 of each cycle; an additional assessment occurred in Cycle 1/Day 15; Vital signs (heart rate, respiratory rate, blood pressure and temperature) were taken on the days of infusion immediately before and after each study drug infusion and at 30 and 60 minutes following last infusion on the first cycle. […]

PDE4 = experiment: Phosphodiesterase bioassay screening, PDE4 assay; assay type: biochemical, human
Description: (§1) Plinabulin was tested using Phosphodiesterase assays including PDE3, PDE4, and PDE5 assays. The source for the PDE3 and PDE5 assays were human platelets and for PDE4 assay was human U937 cells. The substrate for all three assays was 1.01 µM [.H]cAMP+cAMP. For all three assays, the pre-incubation time was 15 mins, the incubation time was 20 mins, and the pre-incubation and incubation temperature was 25° C. The quantification method involves quantitation of [^3H]Adenosine, and the significant criteria was set for i 50% of max stimulation or inhibition.

PDE3 = molecular target: T1, PDE3 (Homo sapiens, UniProt Q14432); experiment: Phosphodiesterase bioassay screening, PDE3 assay; assay type: biochemical; conditions: Plinabulin concentration 10 μm; n 2; source human platelets; [3H]cAMP+cAMP substrate; 25° C.
T1 construct: The source for the PDE3 and PDE5 assays were human platelets; from tissue; host or cells: human platelets
Description: as §1

PDE5 = molecular target: T2, PDE5 (Homo sapiens, UniProt O76074); experiment: Phosphodiesterase bioassay screening, PDE5 assay; assay type: biochemical; conditions: Plinabulin concentration 10 μm; n 2; source human platelets; [3H]cAMP+cAMP substrate; 25° C.
T2 construct: The source for the PDE3 and PDE5 assays were human platelets; from tissue; host or cells: human platelets
Description: as §1

T1 sequence (Q14432 whole entry): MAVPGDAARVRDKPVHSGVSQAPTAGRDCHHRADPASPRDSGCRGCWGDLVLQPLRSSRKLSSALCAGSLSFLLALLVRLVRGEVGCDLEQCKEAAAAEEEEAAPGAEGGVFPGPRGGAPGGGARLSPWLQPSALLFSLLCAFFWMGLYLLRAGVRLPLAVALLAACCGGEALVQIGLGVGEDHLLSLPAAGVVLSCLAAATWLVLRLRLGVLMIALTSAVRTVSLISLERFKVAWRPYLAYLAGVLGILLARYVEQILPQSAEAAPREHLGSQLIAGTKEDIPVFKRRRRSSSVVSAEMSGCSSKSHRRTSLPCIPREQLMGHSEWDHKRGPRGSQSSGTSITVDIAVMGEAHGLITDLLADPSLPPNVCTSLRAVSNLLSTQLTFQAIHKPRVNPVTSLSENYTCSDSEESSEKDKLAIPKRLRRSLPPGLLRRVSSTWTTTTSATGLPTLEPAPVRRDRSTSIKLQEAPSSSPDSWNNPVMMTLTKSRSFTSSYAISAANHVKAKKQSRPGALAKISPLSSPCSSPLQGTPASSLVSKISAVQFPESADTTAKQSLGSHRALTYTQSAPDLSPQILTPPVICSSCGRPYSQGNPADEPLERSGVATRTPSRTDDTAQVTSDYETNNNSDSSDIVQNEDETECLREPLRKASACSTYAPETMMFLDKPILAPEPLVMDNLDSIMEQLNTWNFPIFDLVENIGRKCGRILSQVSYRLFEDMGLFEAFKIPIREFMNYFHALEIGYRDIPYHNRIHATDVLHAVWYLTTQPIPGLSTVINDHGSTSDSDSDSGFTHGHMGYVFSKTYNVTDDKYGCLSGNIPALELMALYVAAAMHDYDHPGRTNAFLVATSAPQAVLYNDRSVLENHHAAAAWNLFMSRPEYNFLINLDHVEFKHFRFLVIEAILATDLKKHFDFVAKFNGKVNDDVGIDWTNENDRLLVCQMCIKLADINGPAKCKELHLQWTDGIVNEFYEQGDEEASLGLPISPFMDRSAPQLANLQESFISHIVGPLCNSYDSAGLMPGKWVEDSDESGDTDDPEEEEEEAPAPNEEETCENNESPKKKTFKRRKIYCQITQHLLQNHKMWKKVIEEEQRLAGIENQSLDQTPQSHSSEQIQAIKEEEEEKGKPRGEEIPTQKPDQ

For `CC(C)(C)c1[nH]cnc1/C=c1\[nH]c(=O)/c(=C/c2ccccc2)[nH]c1=O` [Plinabulin, (3Z,6Z)-3-Benzylidene-6-{[5-(2-methyl-2-propanyl)-1H-imidazol-4-yl]methylene}-2,5-piperazinedione], the “steroid related adverse events versus patients receiving no plinabulin” value ([1]; 30 mg/m^2 of plinabulin, p=0.026) was “statistically more significant”, the “steroid (dexamethasone)-related adverse events, effect of plinabulin dose (FIG. 1)” value ([1]; plinabulin 20 and 30 mg/m^2 added to docetaxel) was “dose-dependent increase” and the “% of inhibition” value (PDE4; Plinabulin concentration 10 μm, n 2, source human U937 cells, [3H]cAMP+cAMP substrate, 25° C.) was 77%. For the same compound, the “inhibition activity against PDE4 compared with PDE3 and PDE5” value (PDE4; from Table 1, 10 μm) was “better inhibition activity against PDE4”, the “% of inhibition” value (PDE3) was 7% and the “% of inhibition” value (PDE5) was 25%.
